# “Also recorded” adds a separate entry of the source. Where two headings read alike, the source gives them in different places.
# Assays:
# adrenergic receptors = conditions: cited from earlier work
# guinea pig trachea = assay: Bronchospasmolytic effect in vitro (Example 13); conditions: per se
# Method: The trachea from a guinea pig was dissected out and spirally cut. It was mounted in a water-jacketed bath (37°C.) in Krebs solution and aerated with oxygen (95%) and carbon dioxide (5%). Pilocarpine (2 μg/ml) was added. The load was adjusted to about 2 g and relaxations in the trachea were recorded by means of a Grass force displacement transducer and a Grass polygraph model 5 (see Example 5 above). The cumulative method was used (-)-Epinephrine was used as reference. The comparisons presented in Table 7 are based on ED50 -values.
# [1] = test system: bronchoconstriction by histamine aerosol; assay: Protecting effect against histamine aerosol in guinea pigs (Example 15); type: in vivo, guinea pig; conditions: Cavia porcellus, read-out: ED50 (protecting 50 percent of the animals for more than 4 minutes)
# Excerpt: Male guinea pigs (200--300 g) were used. Bronchoconstriction was produced by letting the animals inhale a histamine aerosol.
# [2] = test system: isolated guinea pig heart; assay: Effect on isolated heart from guinea pig, Langendorff (Example 16); conditions: per se
# Method: The isolated guinea pig heart was perfused according to Langendorff. The method used is described by Anden et al. [Acta Pharmacol. et Toxicol. 21, 247, (1964)]. Contractions in the heart were recorded by a force displacement transducer and a Grass polygraph model 5. The recovery of the heart was tested with (-) epinephrine between every dose of the substance tested. Terbutaline was used as reference.
# [3] = Toxicity study in mice (Example 18); type: in vivo; conditions: mouse, in vivo, read-out: LD 50 + Standard error
# Method: (§1) The toxicity was studied in mice (NMRI, male, 18-28 g) 24 hours after i.v. and oral administration. The animals were observed during five days. No further deaths occurred.
# mice = assay: Toxicity study in mice (Example 18); type: in vivo; conditions: mouse, in vivo, po
# Method: as §1
# [4] = test system: right auricle from the guinea pig; assay: Dual preparation test in vitro, effect on auricle (Example 5c); conditions: slow infusion, FIGS. 2-4; for cardiac stimulation in relation to bronchodilator effect: both preparations in same bath
# Excerpt: [This procedure is more fully described below in Example 5 (b)].
# FIG. 2 illustrates the effect of epinephrine (EPE) and terbutaline on spirally cut trachea and right auricle from the guinea pig. Both preparations are dissected out from the same animal and run under identical experimental conditions;
# Both preparations are dissected out from the same animal, and run under identical experimental conditions;
# Both preparations are dissected out from the same animal and run under identical experimental conditions;
# The relation between the heart stimulatory effect and bronchodilator effect was studied in vitro on auricle-trachea-preparation from the guinea pig in order to compare the effect on the heart and the effect on the bronchial muscle under identical experimental conditions. Both spontaneously bearing auricle and spirally-cut trachea were placed in the same bath in Krebs solution. Both preparations were taken from the same animal.
# The compound to be tested was slowly infused into the bathing solution and the tension was measured for each of the auricle and trachael preparations.
# In carrying out this dual preparation test, epinephrine was used as a reference. […] Infusion of epinephrine was made over a period of ten minutes. After washing and recovery, the test solution was infused in the same manner and the effect of the test compound was compared with the effect of epinephrine.
# Referring more specifically to FIG. 2, the upper portion of each chart thereof represents the tension continuously recorded of the auricle preparation (shaded area 1 for the effect of epinephrine on the auricle, ref. no. 2 for the effect of terbutaline infused at a rate of 0.2 μg/min on the auricle, and ref. no. 3 for the effect of terbutaline infused at a rate of 0.375μg/min on the auricle).
# isolated rabbit heart = assay: Effect on isolated heart, Langendorff preparation (Example 5d); conditions: injection; FIG. 5
# Method: The effect of the compound of the present invention was also studied on isolated rabbit heart (Langendorff preparation) the method used as described by Anden et al. (Acta Pharmacol. et Toxicol., 21 (1964) page 247). In this procedure, the isolated heart is mounted in a Krebs solution and the test compound is injected into it. Measurements are continuously recorded of the rate and force of contraction.
# The tests using epinephrine establish a standard of comparison to evaluate subsequent test compounds in the same preparation.
# [5] = test system: sphincter of Oddi (choledochoduodenal sphincter); assay: Effect on sphincter of Oddi (Example 5e); type: in vivo, cat; conditions: anesthetized cats; for duodenal pressure / motility / heart rate: concurrent with sphincter effect; for common bile duct pressure / sphincter relaxation: i.v., 1 μg/kg terbutaline in FIG. 7, FIG. 8
# Method: The effect of terbutaline on the choledochoduodenal sphincter of young, healthy cats was studied. Young animals weighing at least 2.0 kg were used. After being deprived of food but not water for 24 hours, they were anesthetized with pentobarbitol (40 mg/kg i.p.). The terminal portion of a common bile duct was isolated and cannulated toward the duodenum. The hepatic part of the bile duct was drained to prevent distention. The pressure was continuously recorded by the open tip technique. Details of the experimental set up have been published by Liedberg and Halabi [Acta. Chir. Scand. 136 (1970) page 208.] Heart rate was recorded on all experiments and blood pressure by arterial cannulation in some.
# Referring to the upper curve of FIGS. 7 and 8, the heart rate is continuously recorded. Concurrent records are made in the middle curve and lower curve of the pressures measured respectively in the common bile duct and in the lower duodenum.
# As a control in this test, the animal was also treated with 0.5 international units per kg of cholecystokinin (CCK).
# In a second test of the effect of terbutaline and isoprenaline on the sphincter (see FIG. 8), the duodenal motility was measured without being affected by CCK.
# bronchial asthma = assay: Clinical study in asthmatic patients (Example 6); type: in vivo, human
# Method: All the patients were hospitalized for severe bronchial asthma. Before the patients were selected for the trial, spirometry was performed before and after isoprenaline inhalations to make sure that their obstruction was at least partly reversible by bronchodilating drugs. The tests were performed when the patients were in a relatively steady state of moderate asthmatic discomfort. Every morning during the trial control measurements of forced expiratory volume in one second (FEV1.0) were made. These values had to be less than 70% of the predicted normal value taking in consideration sex, age and heights. All the patients were under treatment of different drugs for their asthma. Other bronchodilating drugs were withdrawn at least 6 hours before the start of the measurements. Most of the patients were treated with steroids, antibiotics and expectorants before the start of the trial. This regimen was continued unchanged during the trial period.
# Twenty-four took part in the study, 10 male and 14 female. Average age was 51 years (range 15-71 years), mean body weight 64 kg (range 44-88 kg.) and height 166 cm (range 150-187 cm).
# The trial was performed as a double blind study during three consecutive days with the patients serving as their own control. […] The order of treatment was randomized according to the principle of Latin squares.
# Lung function tests were made immediately before the administration of the tablets and after 1, 2, 3, 5 and 7 hours. FEV1.0 was measured using a Vitalograph spirometer. The highest value of three measurements on each occasion was used in the calculations. All the patients had been trained to perform the tests the day before the start of the trial. After 3 and 7 hours, the patients were questioned for side effects. The same, specially trained, nurse assisted throughout the whole investigation.
# The "Student's" t-test was used for statistical evaluation of the results. The degree of significance for the differences is given as almost significant (p<0.05^x) significant (p<0.01^xx) and highly significant (p<0.001^xxx).
molecule,measurement,setting,value
"CNC(C)C(O)c1ccccc1 (stereo not shown) [Ephedrine, 1-phenyl-2-(methylamino)propanol]",cardiovascular side effects,adrenergic receptors; background,palpitations and tachycardia
same,CNS side effects,"adrenergic receptors; background, oral",anxiety and sleeping disturbances
CC(C)(C)NCC(O)c1cc(OC(=O)C(C)(C)C)cc(OC(=O)C(C)(C)C)c1 (stereo not shown) [KWD2085],bronchospasmolytic effect in vitro relative to terbutaline,guinea pig trachea,weaker bronchospasmolytic effect in vitro than terbutaline
same,ED50,"[1]; 0.5 h, oral, 30 minutes before histamine",0.24 mg/kg
same,ED50,"[1]; ip, 0.25 h, i.p., 15 minutes before histamine",0.13 mg/kg
same,direct heart effect relative to terbutaline,[2],much less direct heart effect
same,LD50 at 24 h,[3]; iv,23 ± 2 mg/kg
same,LD50 at 24 h,[3]; po,2200 mg/kg
same,oral absorption in comparison with terbutaline,mice,improved oral absorption in comparison with terbutaline
"CNCC(O)c1ccc(O)c(O)c1 (stereo not shown) [epinephrine, 1-(3',4'-dihydroxyphenyl)-2-(methylamino)-ethanol]",cardiac stimulation in relation to bronchodilator effect,[4],affecting both the auricle and tracheal preparations over the concentration range tested
same,cardiac stimulation in relation to bronchodilator effect,[4]; listed as Epinephrine,bronchodilation and heart muscle stimulation in the same concentration range
same,effect on auricle (tension),[4]; 0.375 μg/min where stated,nearly doubled the maximum tension of the auricle
same,effect on rate and force of isolated heart,isolated rabbit heart,increase in the heart rate; also recorded: increase in the force of contraction; also recorded: readily observable
same,adrenergic receptors stimulated,adrenergic receptors; background,stimulates α- and β1 - as well as β2 -receptors
same,cardiovascular side effects,adrenergic receptors; background,"tachycardia, increased cardiac output and sometimes an increase in blood pressure"
same,duration of bronchodilator activity,adrenergic receptors; background,relatively short-lived
"CC(C)NCC(O)c1ccc(O)c(O)c1 (stereo not shown) [isoprenaline, 1-(3',4'-dihydroxyphenyl)-2-(isopropylamino)-ethanol, reference compound]",cardiac stimulation in relation to bronchodilator effect,[4],strong cardiac stimulants in relation to their bronchodilator effect
same,duodenal pressure / motility,[5],inhibited duodenal motility
same,heart rate,[5],marked tachycardia
same,duodenal pressure / motility,[5]; listed as Isoprenaline,differed markedly from terbutaline in its effect on heart rate and intestinal activity
same,heart rate,[5]; listed as Isoprenaline,differed markedly from terbutaline in its effect on heart rate and intestinal activity
same,common bile duct pressure / sphincter relaxation,[5],reduces common bile duct pressure
same,adrenergic receptors stimulated,adrenergic receptors; background,stimulates β1 and β2 -receptors equally
same,duration of bronchodilator activity,adrenergic receptors; background,relatively short-lived
same,cardiovascular side effects,adrenergic receptors,"cardiovascular stimulation, especially tachycardia"
"CC(C)NCC(O)c1cc(O)cc(O)c1 (stereo not shown) [orciprenaline, 1-(3',5'-dihydroxyphenyl)-2-(isopropylamino)-ethanol, reference compound]",cardiac stimulation in relation to bronchodilator effect,[4],strong cardiac stimulants in relation to their bronchodilator effect
same,time of maximal response (FEV1.0),bronchial asthma; oral single dose,2 h
same,increase of FEV1.0,"bronchial asthma; oral, terbutaline 5.0 mg, orciprenaline 20 mg, FIG. 9",clearcut increase of the spirometric values
same,bronchodilator potency,"adrenergic receptors; background, versus previously used bronchodilators",less potency than previously used bronchodilators
cholecystokinin [reference compound],duodenal pressure / motility,[5],markedly stimulated the duodenum
same,common bile duct pressure / sphincter relaxation,[5],relaxed the sphincter

# Reference: patent publication US3937838A, “Orally active bronchospasmolytic compounds and their preparation” (priority 1966, dated 1976)
